Our source for the IC50 values is PubChem BioAssay AID1671319.

This assay concerns the target Tyrosine-protein kinase Lyn (Homo sapiens) (UniProt P07948). Kind of assay: inhibitors of human LYN isoform B activity – biochemical, Z'-LYTE, FRET readout, dose response (AID 1671319). As to conditions: Z'-LYTE FRET kinase assay, recombinant LYN B.

Chain of Tyrosine-protein kinase Lyn (Homo sapiens) (P07948 whole entry, looked up, canonical isoform): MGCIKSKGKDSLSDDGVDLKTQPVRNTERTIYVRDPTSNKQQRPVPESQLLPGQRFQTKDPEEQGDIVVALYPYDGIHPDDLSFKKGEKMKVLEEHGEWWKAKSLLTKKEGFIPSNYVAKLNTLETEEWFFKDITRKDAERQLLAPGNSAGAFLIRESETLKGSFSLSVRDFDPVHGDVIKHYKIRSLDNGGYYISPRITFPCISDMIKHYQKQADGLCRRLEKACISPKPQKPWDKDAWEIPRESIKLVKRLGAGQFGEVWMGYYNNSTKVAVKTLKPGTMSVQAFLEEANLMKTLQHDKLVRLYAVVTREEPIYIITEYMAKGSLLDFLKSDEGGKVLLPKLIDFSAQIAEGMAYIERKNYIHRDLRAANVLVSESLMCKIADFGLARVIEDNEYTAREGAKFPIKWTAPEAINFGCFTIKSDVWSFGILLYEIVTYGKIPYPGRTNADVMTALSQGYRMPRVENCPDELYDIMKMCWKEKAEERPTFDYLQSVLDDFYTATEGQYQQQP

The IC50 is the concentration that gives 50% inhibition. Turning to `COc1cc2ncnc(Nc3cccc(Cl)c3)c2cc1OC`, the IC50 is 244 nM.
